Data reported in PubChem BioAssay AID1259407 (Chemical Carcinogenesis Research Information System (CCRIS), 2018).
Calls of active or inactive are those of the source. No rule for the calls is given here.

Tested on: CCRIS mutagenicity, Ames/micronucleus/aberration tests
Experiment: CCRIS mutagenicity studies
[1] = Test System: AMES SALMONELLA TYPHIMURIUM, Strain/Indicator: TA98, Metabolic Activation: NONE, Method: STANDARD PLATE
[2] = Test System: AMES SALMONELLA TYPHIMURIUM, Strain/Indicator: TA98, Metabolic Activation: NONE, Method: PREINCUBATION

Structure (SMILES): Nc1ncnc2c1ncn2[C@H]1C[C@H](O)[C@@H](CO)O1
- mutagenic call [1]: inactive; negative
- mutagenic call (Test System: AMES SALMONELLA TYPHIMURIUM, Strain/Indicator: TA98, Metabolic Activation: RAT, LIVER, S-9, POLYCHLORINATED BIPHENYLS, Method: STANDARD PLATE): inactive; negative
- mutagenic call (Test System: AMES SALMONELLA TYPHIMURIUM, Strain/Indicator: TA100, Metabolic Activation: NONE, Method: STANDARD PLATE): inactive; negative
- mutagenic call (Test System: AMES SALMONELLA TYPHIMURIUM, Strain/Indicator: TA100, Metabolic Activation: RAT, LIVER, S-9, POLYCHLORINATED BIPHENYLS, Method: STANDARD PLATE): inactive; negative
- mutagenic call (Test System: MOUSE LYMPHOMA, Strain/Indicator: L5178Y (TK+/TK-), Metabolic Activation: NONE, Method: SUSPENSION/PLATE): active; positive

Structure (SMILES): O=C(OOC(=O)c1ccccc1)c1ccccc1
- mutagenic call (Test System: AMES SALMONELLA TYPHIMURIUM, Strain/Indicator: TA97, Metabolic Activation: HAMSTER, LIVER, S-9, AROCLOR 1254 (10 OR 30%), Method: PREINCUBATION): inactive; negative
- mutagenic call (Test System: AMES SALMONELLA TYPHIMURIUM, Strain/Indicator: TA97, Metabolic Activation: NONE, Method: PREINCUBATION): inactive; negative
- mutagenic call (Test System: AMES SALMONELLA TYPHIMURIUM, Strain/Indicator: TA97, Metabolic Activation: RAT, LIVER, S-9, AROCLOR 1254 (10 OR 30%), Method: PREINCUBATION): inactive; negative
- mutagenic call (Test System: AMES SALMONELLA TYPHIMURIUM, Strain/Indicator: TA97, Metabolic Activation: RAT, LIVER, S-9, AROCLOR 1254, Method: PREINCUBATION): inactive; negative
- mutagenic call (Test System: AMES SALMONELLA TYPHIMURIUM, Strain/Indicator: TA97A, Metabolic Activation: NONE, Method: PREINCUBATION): inactive; negative
- mutagenic call (Test System: AMES SALMONELLA TYPHIMURIUM, Strain/Indicator: TA97A, Metabolic Activation: RAT LIVER S-9, AROCLOR 1254, Method: PREINCUBATION): inactive; negative
- mutagenic call (Test System: AMES SALMONELLA TYPHIMURIUM, Strain/Indicator: TA98, Metabolic Activation: HAMSTER, LIVER, S-9, AROCLOR 1254 (10 OR 30%), Method: PREINCUBATION): inactive; negative
- mutagenic call [2]: inactive; negative
- mutagenic call (Test System: AMES SALMONELLA TYPHIMURIUM, Strain/Indicator: TA98, Metabolic Activation: RAT LIVER S-9, PHENOBARBITAL AND BETA-NAPHTHOFLAVONE, Method: PREINCUBATION): inactive; negative
- mutagenic call (Test System: AMES SALMONELLA TYPHIMURIUM, Strain/Indicator: TA98, Metabolic Activation: RAT, LIVER, S-9, AROCLOR 1254 (10 OR 30%), Method: PREINCUBATION): inactive; negative
- mutagenic call (Test System: AMES SALMONELLA TYPHIMURIUM, Strain/Indicator: TA100, Metabolic Activation: HAMSTER, LIVER, S-9, AROCLOR 1254 (10 OR 30%), Method: PREINCUBATION): inactive; negative
- mutagenic call (Test System: AMES SALMONELLA TYPHIMURIUM, Strain/Indicator: TA100, Metabolic Activation: NONE, Method: PREINCUBATION): inactive; negative
- mutagenic call (Test System: AMES SALMONELLA TYPHIMURIUM, Strain/Indicator: TA100, Metabolic Activation: RAT LIVER S-9, AROCLOR 1254, Method: PREINCUBATION): inactive; negative
- mutagenic call (Test System: AMES SALMONELLA TYPHIMURIUM, Strain/Indicator: TA100, Metabolic Activation: RAT LIVER S-9, PHENOBARBITAL AND BETA-NAPHTHOFLAVONE, Method: PREINCUBATION): inactive; negative
- mutagenic call (Test System: AMES SALMONELLA TYPHIMURIUM, Strain/Indicator: TA100, Metabolic Activation: RAT, LIVER, S-9, AROCLOR 1254 (10 OR 30%), Method: PREINCUBATION): inactive; negative
- mutagenic call (Test System: AMES SALMONELLA TYPHIMURIUM, Strain/Indicator: TA102, Metabolic Activation: NONE, Method: PREINCUBATION): inactive; negative
- mutagenic call (Test System: AMES SALMONELLA TYPHIMURIUM, Strain/Indicator: TA102, Metabolic Activation: RAT LIVER S-9, AROCLOR 1254, Method: PREINCUBATION): inactive; negative
- mutagenic call (Test System: AMES SALMONELLA TYPHIMURIUM, Strain/Indicator: TA102, Metabolic Activation: RAT, LIVER, S-9, AROCLOR 1254, Method: PREINCUBATION): inactive; negative
- mutagenic call (Test System: AMES SALMONELLA TYPHIMURIUM, Strain/Indicator: TA104, Metabolic Activation: NONE, Method: PREINCUBATION): inactive; negative
- mutagenic call (Test System: AMES SALMONELLA TYPHIMURIUM, Strain/Indicator: TA104, Metabolic Activation: RAT LIVER S-9, AROCLOR 1254, Method: PREINCUBATION): inactive; negative
- mutagenic call (Test System: AMES SALMONELLA TYPHIMURIUM, Strain/Indicator: TA1535, Metabolic Activation: HAMSTER, LIVER, S-9, AROCLOR 1254 (10 OR 30%), Method: PREINCUBATION): inactive; negative
- mutagenic call (Test System: AMES SALMONELLA TYPHIMURIUM, Strain/Indicator: TA1535, Metabolic Activation: NONE, Method: PREINCUBATION): inactive; negative
- mutagenic call (Test System: AMES SALMONELLA TYPHIMURIUM, Strain/Indicator: TA1535, Metabolic Activation: RAT LIVER S-9, PHENOBARBITAL AND BETA-NAPHTHOFLAVONE, Method: PREINCUBATION): inactive; negative
- mutagenic call (Test System: AMES SALMONELLA TYPHIMURIUM, Strain/Indicator: TA1535, Metabolic Activation: RAT, LIVER, S-9, AROCLOR 1254 (10 OR 30%), Method: PREINCUBATION): inactive; negative
- mutagenic call (Test System: AMES SALMONELLA TYPHIMURIUM, Strain/Indicator: TA1537, Metabolic Activation: NONE, Method: PREINCUBATION): inactive; negative
- mutagenic call (Test System: AMES SALMONELLA TYPHIMURIUM, Strain/Indicator: TA1537, Metabolic Activation: RAT LIVER S-9, PHENOBARBITAL AND BETA-NAPHTHOFLAVONE, Method: PREINCUBATION): inactive; negative
- mutagenic call (Test System: E.COLI, Strain/Indicator: WP2UVRA/PKM101, Metabolic Activation: NONE, Method: PREINCUBATION): inactive; negative
- mutagenic call (Test System: E.COLI, Strain/Indicator: WP2UVRA/PKM101, Metabolic Activation: RAT LIVER S-9, PHENOBARBITAL AND BETA-NAPHTHOFLAVONE, Method: PREINCUBATION): inactive; negative

Structure (SMILES): O=[N+]([O-])c1ccc2c(ccc3ccccc32)c1
- mutagenic call (Test System: AMES SALMONELLA TYPHIMURIUM, Strain/Indicator: TA98(1,8-DNP6), Metabolic Activation: NONE, Method: STANDARD PLATE): active; positive
- mutagenic call (Test System: AMES SALMONELLA TYPHIMURIUM, Strain/Indicator: TA98(NR), Metabolic Activation: NONE, Method: STANDARD PLATE): active; positive
- mutagenic call [2]: active; positive
- mutagenic call [1]: active; positive
- mutagenic call (Test System: AMES SALMONELLA TYPHIMURIUM, Strain/Indicator: TA98, Metabolic Activation: RAT, LIVER, S-9, PCB (10%), Method: PREINCUBATION): active; positive
- mutagenic call (Test System: AMES SALMONELLA TYPHIMURIUM, Strain/Indicator: TA7001, Metabolic Activation: NONE, Method: PREINCUBATION): active; positive
- mutagenic call (Test System: AMES SALMONELLA TYPHIMURIUM, Strain/Indicator: TA7002, Metabolic Activation: NONE, Method: PREINCUBATION): active; positive
- mutagenic call (Test System: AMES SALMONELLA TYPHIMURIUM, Strain/Indicator: TA7003, Metabolic Activation: NONE, Method: PREINCUBATION): active; positive
- mutagenic call (Test System: AMES SALMONELLA TYPHIMURIUM, Strain/Indicator: TA7004, Metabolic Activation: NONE, Method: PREINCUBATION): active; positive
- mutagenic call (Test System: AMES SALMONELLA TYPHIMURIUM, Strain/Indicator: TA7005, Metabolic Activation: NONE, Method: PREINCUBATION): active; positive
- mutagenic call (Test System: AMES SALMONELLA TYPHIMURIUM, Strain/Indicator: TA7006, Metabolic Activation: NONE, Method: PREINCUBATION): active; positive
